The test system of series [1] is Human hepatoma cells Hep3b. Put plainly: Cell proliferation inhibition, Cell Titer-Glo. The class given is cell-based. Conditions: Hep3B, 72 h. Here is the method: 2. Determination of cell proliferation activity of compounds:
Cell Titer-Glo ® detection reagent from Promega was used to establish the suspension cell proliferation inhibition screening method. Human hepatoma cells Hep3b (Xiehe Cell Research Center) were cultured in 25 cm^2 or 75 cm^2 plastic tissue culture flasks (Corning®) filled with MEM (Gibco®) medium supplemented with 10% fetal bovine serum (Hyclone®) under 37° C., 95% air and 5% CO2, and subcultured 2-3 times a week.
(§1) Hep3b cells were seeded in a 96-well cell culture plate (Corning®) at a density of 3×10^3 cells/well, […], and cultured under 37° C., 95% air, and 5% CO2. After 24 h the test compound was added: 10 mM compounds (dissolved in DMSO) were subjected to 3-fold gradient dilution in DMSO , […] of diluent from each concentration was added to […] of serum-free medium, and finally […] of compound diluted in the medium was added to the plate seeded with cells. The final concentration of DMSO in the cell culture medium was 0.1% and the final concentration of the test compound was 0.3 nM-[…]. The above cells were incubated for 3 days under 37° C.
After 3 days, the cell viability assay was performed by the Cell Titer-Glo (Promega) kit, and finally, the inhibitory concentration 50% of the compound on cell proliferation, i.e. the IC 50 value, was calculated by the GraphPad Prism 5.0 program.
as §1, with “DMSO,” for “DMSO ,”, “finally,” for “finally”, “of” for “of the”
After 3 days, the cell viability assay was performed by the Cell Titer-Glo (Promega) kit, and finally the inhibitory concentration 50% of the compound on cell proliferation, i.e. the IC 50 value, was calculated by the GraphPad Prism 5.0 program.
A general note: ATP-based viability assays read luminescence as a measure of living cells.

The nature of series [2]: Pharmacokinetics in male SD rats, single intragastric administration. The class given is in vivo. To be noted: 5 mg/kg suspension, plasma; for AUC(0-inf) / Cmax / Tmax / half-life: rat, po. The procedure:
(§2) Male SD rats (Beijing Vital River Laboratory Animal Technology Co., Ltd.) were divided into groups of 3 rats each. The rats were subjected to 5 mg/kg suspension of the test sample by single intragastric administration, respectively. Animals were fasted overnight prior to the experiment from 10 h before dosing to 4 h after dosing. Blood was collected 0.25, 0.5, 1, 2, 4, 6, 8, and 24 h after administration. After isoflurane anesthesia using a small animal anesthesia machine, 0.3 mL of whole blood samples was collected from the fundus venous plexus, placed in a heparin anticoagulant tube, and were centrifuged at 4° C., 4000 rpm for 5 min, plasma was transferred to the centrifuge tube, and stored at −80° C. until analysis. Samples in the plasma were extracted using protein precipitation and the extracts were analyzed by LC/MS/MS.
as §2, with “taken through” for “collected from”, “-80°” for “−80°”

In another series the test system is FGFR1-4. Conditions: background art; equally high-efficiency inhibition of FGFR1-4; cited from earlier work.
For another series, the target named is FGFR-4 kinase (Homo sapiens, UniProt P22455). The experiment in a line: FGFR-4 kinase activity, homogeneous time-resolved fluorescence (HTRF) method. It counts as biochemical. Conditions: ATP 25 μM, FGFR-4 kinase 1 nM, read-out: FGFR4 IC50. Here is the method: 1. In vitro determination of the protein activity of compounds: The FGFR-4 kinase activity detection platform was established by the homogeneous time-resolved fluorescence (HTRF) method, and the activity of the compound was determined. 1000 μM compounds were subjected to 3-fold gradient dilution in 100% DMSO 11 times (12 concentrations in total), 4 μL diluent from each concentration was added to 96 μL of reaction buffer (50 mM HEPES, pH 7.4, 5 mM MnCl2, 0.1 mM NaVO3, 0.001% Tween-20, 0.01% BAS, 1 mM DTT) and mixed well, as a 4* compound (final concentration of 0.017 nM-1000 nM) for later use. 2 * FGFR-4 kinase (final concentration of 1 nM) was formulated using reaction buffer and 4*substrate (ATP+TK peptide) (TK peptide, HTRF® KinEASETM-TK, purchased from Cisbio, TK peptide, final concentration of 1 μM, ATP final concentration of 25 μ M) was formulated using reaction buffer. 2.5 μL of 4*compound and then 5 μL of 2 * FGFR-4 kinase were added to a 384-well plate (OptiPlate-384, purchased from PerkinElmer), the mixture was mixed by centrifugation, and 2.5 μL of 4 * substrate mixture was added to start the reaction (total reaction volume of 10 µL). The 384-well plate was placed in an incubator 23° C. and stirred for 60 min before the reaction was stopped by the addition of 5 μL of Eu^3+cryptate-labeled anti-phosphotyrosine antibody (TRF® KinEASE™-TK, purchased from Cisbio) and 5 μL of Streptavidin-XL-665 (HTRF® KinEASE™-TK, purchased from Cisbio). After incubation in the incubator for 1 h, fluorescence values (excitation at 320 nm, detecting emitted light at 665 nm and 620 nm, and a ratio of the two as enzyme activity) were read on Envision (purchased from PerkinElmer). The enzyme activity of each compound was measured at 12 concentrations, and the ICso value of the compound was calculated using GraphPad Prism 5.0 software.
Sequence of FGFR-4 kinase (P22455 22-802): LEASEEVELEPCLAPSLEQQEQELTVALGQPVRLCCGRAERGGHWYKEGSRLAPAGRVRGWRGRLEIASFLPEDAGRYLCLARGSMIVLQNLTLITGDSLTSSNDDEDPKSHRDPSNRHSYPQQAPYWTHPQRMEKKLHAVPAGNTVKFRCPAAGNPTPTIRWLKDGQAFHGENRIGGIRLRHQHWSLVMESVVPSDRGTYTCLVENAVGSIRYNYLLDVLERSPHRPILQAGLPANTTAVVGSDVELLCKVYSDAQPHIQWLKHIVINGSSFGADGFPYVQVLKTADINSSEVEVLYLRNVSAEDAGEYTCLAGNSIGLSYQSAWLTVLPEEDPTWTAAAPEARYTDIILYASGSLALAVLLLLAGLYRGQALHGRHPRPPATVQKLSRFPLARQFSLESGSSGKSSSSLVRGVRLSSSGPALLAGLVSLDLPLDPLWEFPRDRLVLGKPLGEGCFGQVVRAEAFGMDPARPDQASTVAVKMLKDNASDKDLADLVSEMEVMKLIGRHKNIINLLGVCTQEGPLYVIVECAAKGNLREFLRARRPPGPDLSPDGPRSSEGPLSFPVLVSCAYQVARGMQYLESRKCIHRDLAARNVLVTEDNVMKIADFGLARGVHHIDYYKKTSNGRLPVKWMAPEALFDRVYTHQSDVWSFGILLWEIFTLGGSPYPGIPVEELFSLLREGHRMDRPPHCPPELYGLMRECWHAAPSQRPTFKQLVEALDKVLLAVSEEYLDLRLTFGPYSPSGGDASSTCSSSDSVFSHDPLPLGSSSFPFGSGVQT
The FGFR-4 kinase activity detection platform was established by homogeneous time-resolved fluorescence (HTRF) method, and the activity of compound was determined. 1000 μM compounds were subjected to 3-fold gradient dilution in 100% DMSO 11 times (12 concentrations in total), 4 μL of diluent from each concentration was added to 96 μL of reaction buffer (50 mM HEPES, pH 7.4, 5 mM MnCl2, 0.1 mM NaVO3, 0.001% Tween-20, 0.01% BAS, 1 mM DTT) and mixed well, as a 4* compound (final concentration of 0.017 nM-1000 nM) for later use. 2 * FGFR-4 kinase (final concentration of 1 nM) was formulated using reaction buffer and 4*substrate (ATP+TK peptide)(TK peptide, HTRF® KinEASE™-TK, purchased from Cisbio, TK peptide, final concentration of 1 μM, ATP final concentration of 25 μM) was formulated using reaction buffer. 2.5 μL of 4 * compound and then 5 μL of 2 * FGFR-4 kinase were added to a 384-well plate (OptiPlate-384, purchased from PerkinElmer), the mixture was mixed by centrifugation, and 2.5 μL of 4 * substrate mixture was added to start the reaction (total reaction volume of 10 μL). The 384-well plate was placed in an incubator 23° C. and stirred for 60 min before the reaction was stopped by the addition of 5 μL of Eu^3+cryptate-labled anti-phosphotyrosine antibody (TRF® KinEASE™-TK, purchased from Cisbio) and 5 μL of Streptavidin-XL-665 (HTRF® KinEASE™-TK, purchased from Cisbio). After incubation in the incubator for 1 h, fluorescence values (excitation at 320 nm, detecting emitted light at 665 nm and 620 nm, and a ratio of the two as enzyme activity) were read on Envision (purchased from PerkinElmer). The enzyme activity of each compopund was measured at 12 concentrations, and the ICso value of the compound was calculated using GraphPad prism 5.0 software.
(In general: Time-resolved FRET reads energy transfer from a long-lived donor to a nearby acceptor.)

The mark [3] stands for this setting: first PK table, read-out: T1/2 (converted).
[4] abbreviates: second PK table, read-out: T½ (converted).

We go through seven molecules from patent US20220185811A1, “FGFR4 KINASE INHIBITOR AND PREPARATION METHOD THEREFOR AND USE THEREOF” (SHOUYAO HOLDINGS (BEIJING) CO., LTD., priority 2019, published 2022).

Like-named read-outs stand apart in the source and are kept apart here.

As for `C=CC(=O)Nc1cc(-c2cc3c(cn2)cc(-c2c(Cl)c(OC)cc(OC)c2Cl)c2nccn23)c(OC)cc1N1C2CCC1COC2` [Example 6, N-(2-(3-oxa-8-azabicyclo[3 .2.1]octan-8-yl)-5-(4-(2,6-dichloro-3,5-dimethoxyphenyl)imidazo[1,2-a][1,6]naphthyridin-8-yl)-4-methoxyphenyl)acrylamide], half-maximal inhibition in series [1] (Table 1, 3 days incubation) (IC50) was put at 58.3 nM. For the same molecule, in series [2] (first PK table), the AUC(0-inf) amounted to 2560 ng·h/mL, the highest level (Cmax) was 236 ng/mL and the time of peak concentration (Tmax) came out at 6 h. The half-life in series [2] (setting [3]) was 11.5 h.

For `C[C@@H](Oc1ccc2[nH]nc(/C=C/c3cnn(CCO)c3)c2c1)c1c(Cl)cncc1Cl` [LY2874455], in the series on FGFR1-4, the “IC50 on FGFR1-4” value is listed as “single-digit nanomolar level”.

Consider `C=CC(=O)N[C@H]1CCOC[C@H]1Nc1ncc2cc(-c3c(Cl)c(OC)cc(OC)c3Cl)ccc2n1` [Blu-554, reference compound], for which the IC50 in series [1] (Table 1, 3 days incubation) worked out at 162 nM; in series [1] (Table 2, 3 days incubation), 66.1 nM; on FGFR-4 kinase (Table 1) it was 7.49 nM; on FGFR-4 kinase (Table 2) it was 2.21 nM. Also, in series [2] (second PK table), the “T½” value stood at 1.64 h. Further, the area under the curve AUC(0-inf) in series [2] (first PK table) was 1680 ng·h/mL. Further, the highest concentration (Cmax) in series [2] (first PK table) was found to be 362 ng/mL. Also, the Tmax in series [2] (first PK table) was found to be 2.67 h. In series [2] (setting [3]), the half-life was 1.64 h.

In the case of `COc1cc(OC)cc(N(CCNC(C)C)c2ccc3ncc(-c4cnn(C)c4)nc3c2)c1` [JNJ-42756493], the “IC50 on FGFR1-4” value in the series with FGFR1-4 is listed as “single-digit nanomolar level”.

As to `C=CC(=O)Nc1cc(-c2cc3c(cn2)cc(-c2c(Cl)c(OC)cc(OC)c2Cl)c2nccn23)c(OC)cc1N1C[C@@H]2C[C@H]1CO2` [Example 61, N-(2-((1S,4S)-2-oxa-5-azabicyclo[2.2.1]heptan-5-yl)-5-(4-(2,6-dichloro-3,5-dimethoxyphenyl)imidazo[1,2-a][1,6]naphthyridin-8-yl)-4-methoxyphenyl)acrylamide], the half-maximal inhibitory concentration (IC50) in series [1] (Table 2, 3 days incubation) was 121 nM. In series [2] (second PK table), the total exposure AUC(0-inf) was determined as 3050 ng·h/mL, the highest concentration (Cmax) worked out at 561 ng/mL and the Tmax amounted to 1.17 h. The half-life in series [2] (setting [4]) is 2.6 h. In addition, the IC50 at FGFR-4 kinase (Table 2) turned out to be 1.7 nM.

For the molecule `C=CC(=O)Nc1cc(-c2cc3c(cn2)cc(-c2c(Cl)c(OC)cc(OC)c2Cl)c2nccn23)c(OC)cc1N1CCC2(CCOC2)C1` (stereo not shown) [Example 62, N-(5-(4-(2,6-dichloro-3,5-dimethoxyphenyl)imidazo[1,2-a][1,6]naphthyridin-8-yl)-4-methoxy-2-(2-oxa-7-azaspiro[4, 4]nonan-7-yl)phenyl)acrylamide], the IC50 in series [1] (Table 2, 3 days incubation) came out at 43.8 nM. Moreover, in series [2] (second PK table), the AUC(0-inf) came out at 1120 ng·h/mL, the concentration peaked (Cmax) at 175 ng/mL and the time to peak (Tmax) was 5.33 h. Also, the half-life in series [2] (setting [4]) was 4.93 h. Moreover, the half-maximal inhibitory concentration (IC50) at FGFR-4 kinase (Table 2) stood at 2.4 nM.

Consider `C=CC(=O)Nc1cc(-c2cc3c(cn2)cc(-c2c(Cl)c(OC)cc(OC)c2Cl)c2nccn23)c(OC)cc1N1CCN(C2CC2)CC1` [Example 59], for which inhibition in series [1] (Table 2, 3 days incubation) was half-maximal at 63.2 nM (IC50). Further, in series [2] (second PK table), the AUC(0-inf) is 3940 ng·h/mL, the peak concentration (Cmax) stood at 505 ng/mL and the Tmax amounted to 2.67 h. Moreover, in series [2] (setting [4]), the half-life is 3.97 h. The IC50 on FGFR-4 kinase (Table 2) came out at 1.1 nM.

Usually IC50 stands for the concentration at which inhibition is half-maximal. A word on the AUC(0-inf): it is the area under the concentration-time curve extrapolated to infinity. A lower AUC(0-inf) goes with less exposure. The term Cmax denotes the peak of the concentration-time curve. Broadly, the Tmax is the time from dosing to the highest level.
